According to US12371428B2 (Exelixis, Inc., priority 2019, dated 2025):
Like-named read-outs stand apart in the source and are kept apart here.

Assays:
Assay type in all cases: cell-based
[1] = biological target: Met (phospho-Met, HGF-stimulated PC-3 prostate cancer cells) (Homo sapiens (Human), UniProt P08581); experiment: Met autophosphorylation ELISA in PC-3 cells (Example F); settings: cellular activity, read-out: c-Met IC50
Procedure, shortened: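 PC-3 cells, serum-starved 3 h, were treated with compounds (8-point dose curve, 0.3% DMSO final) for 1 h, then stimulated with 100 ng/mL recombinant human HGF for 10 min. Lysate phospho-Met (panTyr) was quantified by sandwich ELISA; IC50 from 4-parameter logistic fit.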

[2] = biological target: KDR (phospho-KDR, VEGF165-stimulated HUVEC cells) (Homo sapiens (Human), UniProt P35968); experiment: KDR autophosphorylation ELISA in HUVEC cells (Example G); settings: cellular activity
Sequence of KDR (phospho-KDR, VEGF165-stimulated HUVEC cells) (P35968 20-1356): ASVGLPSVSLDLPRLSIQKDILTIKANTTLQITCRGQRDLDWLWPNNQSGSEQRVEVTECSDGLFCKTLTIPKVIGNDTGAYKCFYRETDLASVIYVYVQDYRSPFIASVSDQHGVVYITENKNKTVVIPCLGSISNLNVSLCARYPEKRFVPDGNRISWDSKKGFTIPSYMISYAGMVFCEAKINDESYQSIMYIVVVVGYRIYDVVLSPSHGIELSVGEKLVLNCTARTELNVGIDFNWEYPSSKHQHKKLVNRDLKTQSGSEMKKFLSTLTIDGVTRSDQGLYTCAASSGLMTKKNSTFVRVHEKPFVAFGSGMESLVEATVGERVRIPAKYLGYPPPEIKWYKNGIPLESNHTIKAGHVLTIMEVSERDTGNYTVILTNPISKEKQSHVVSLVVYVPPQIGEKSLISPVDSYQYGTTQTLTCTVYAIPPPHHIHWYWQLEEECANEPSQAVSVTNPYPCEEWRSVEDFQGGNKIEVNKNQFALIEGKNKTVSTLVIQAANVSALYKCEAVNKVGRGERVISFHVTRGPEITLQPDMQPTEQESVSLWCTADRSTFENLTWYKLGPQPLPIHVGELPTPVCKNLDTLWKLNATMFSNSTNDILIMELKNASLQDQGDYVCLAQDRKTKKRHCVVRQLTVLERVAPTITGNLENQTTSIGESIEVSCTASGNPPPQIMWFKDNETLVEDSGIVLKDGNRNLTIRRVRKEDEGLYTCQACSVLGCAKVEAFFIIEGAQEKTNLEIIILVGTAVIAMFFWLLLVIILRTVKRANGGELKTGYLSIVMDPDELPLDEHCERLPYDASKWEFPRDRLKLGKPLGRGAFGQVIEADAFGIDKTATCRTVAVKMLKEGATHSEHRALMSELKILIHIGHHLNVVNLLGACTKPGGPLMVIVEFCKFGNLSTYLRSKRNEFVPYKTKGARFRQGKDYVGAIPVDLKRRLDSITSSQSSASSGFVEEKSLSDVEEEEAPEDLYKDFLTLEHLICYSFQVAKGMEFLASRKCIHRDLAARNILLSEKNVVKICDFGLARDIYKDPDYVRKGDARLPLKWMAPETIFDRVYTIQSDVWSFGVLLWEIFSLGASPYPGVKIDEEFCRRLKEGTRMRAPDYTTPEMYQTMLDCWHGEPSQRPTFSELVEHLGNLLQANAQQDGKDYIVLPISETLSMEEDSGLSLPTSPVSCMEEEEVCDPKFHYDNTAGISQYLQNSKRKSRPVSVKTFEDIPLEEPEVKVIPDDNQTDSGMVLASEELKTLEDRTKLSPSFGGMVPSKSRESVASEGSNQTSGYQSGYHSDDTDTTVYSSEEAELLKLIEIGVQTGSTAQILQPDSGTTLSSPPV
Procedure, shortened: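 HUVECs were serum-starved 24 h, given compound as an 8-point dilution series (0.3% DMSO final) for 1 h, then stimulated with 100 ng/mL VEGF165 for 5 min. Lysate phospho-KDR was quantified by sandwich ELISA against a phospho-KDR standard, and IC50s came from a 4-parameter logistic fit.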

[3] = biological target: Mer (phospho-Mer, MERTK-transfected 293A cells) (Homo sapiens (Human), UniProt Q12866); experiment: Mer autophosphorylation ELISA in transient transfected 293A cells (Example H); settings: cellular activity
Sequence of Mer (phospho-Mer, MERTK-transfected 293A cells) (Q12866 21-999): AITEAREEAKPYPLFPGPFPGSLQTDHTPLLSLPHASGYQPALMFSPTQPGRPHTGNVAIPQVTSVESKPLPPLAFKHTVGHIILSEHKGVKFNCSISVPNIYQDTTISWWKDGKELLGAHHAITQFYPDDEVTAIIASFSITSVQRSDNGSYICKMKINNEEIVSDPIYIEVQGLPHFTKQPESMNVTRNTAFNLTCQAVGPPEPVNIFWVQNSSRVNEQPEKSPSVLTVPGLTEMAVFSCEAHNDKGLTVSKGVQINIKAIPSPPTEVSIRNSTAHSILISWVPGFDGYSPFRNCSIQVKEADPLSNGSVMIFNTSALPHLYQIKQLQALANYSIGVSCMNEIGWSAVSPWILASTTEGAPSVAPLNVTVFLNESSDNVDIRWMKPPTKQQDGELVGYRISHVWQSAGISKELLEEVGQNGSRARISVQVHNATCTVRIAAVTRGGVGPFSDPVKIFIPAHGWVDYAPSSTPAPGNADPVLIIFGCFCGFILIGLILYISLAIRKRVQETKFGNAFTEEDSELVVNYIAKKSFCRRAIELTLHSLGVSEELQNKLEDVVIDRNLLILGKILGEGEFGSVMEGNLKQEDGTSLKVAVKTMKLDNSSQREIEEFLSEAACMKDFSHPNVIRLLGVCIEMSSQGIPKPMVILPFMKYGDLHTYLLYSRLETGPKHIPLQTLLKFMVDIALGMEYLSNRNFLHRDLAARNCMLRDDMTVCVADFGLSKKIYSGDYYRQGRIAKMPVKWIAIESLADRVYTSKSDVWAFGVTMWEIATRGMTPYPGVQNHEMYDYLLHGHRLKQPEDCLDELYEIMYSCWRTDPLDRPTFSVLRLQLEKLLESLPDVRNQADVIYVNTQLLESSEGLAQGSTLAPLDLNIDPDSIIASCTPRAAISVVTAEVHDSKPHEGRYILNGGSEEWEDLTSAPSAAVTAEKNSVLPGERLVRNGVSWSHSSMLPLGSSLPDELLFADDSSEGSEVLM
Procedure, shortened: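 Human MERTK transiently transfected into 293A cells; compounds as 8-point dose curve in serum-free medium (0.3% DMSO final), 1 h. Lysates assayed by phospho-Mer sandwich ELISA against phospho-Mer standard; DMSO = 100%, reference inhibitor = 0% activity; IC50 from 4-parameter logistic fit.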

[4] = biological target: AXL (phospho-AXL, Gas6-stimulated A-172 glioblastoma cells) (Homo sapiens (Human), UniProt P30530); experiment: AXL autophosphorylation ELISA in A-172 cells (Example E); settings: cellular activity, read-out: Axl IC50
Sequence of AXL (phospho-AXL, Gas6-stimulated A-172 glioblastoma cells) (P30530 26-894): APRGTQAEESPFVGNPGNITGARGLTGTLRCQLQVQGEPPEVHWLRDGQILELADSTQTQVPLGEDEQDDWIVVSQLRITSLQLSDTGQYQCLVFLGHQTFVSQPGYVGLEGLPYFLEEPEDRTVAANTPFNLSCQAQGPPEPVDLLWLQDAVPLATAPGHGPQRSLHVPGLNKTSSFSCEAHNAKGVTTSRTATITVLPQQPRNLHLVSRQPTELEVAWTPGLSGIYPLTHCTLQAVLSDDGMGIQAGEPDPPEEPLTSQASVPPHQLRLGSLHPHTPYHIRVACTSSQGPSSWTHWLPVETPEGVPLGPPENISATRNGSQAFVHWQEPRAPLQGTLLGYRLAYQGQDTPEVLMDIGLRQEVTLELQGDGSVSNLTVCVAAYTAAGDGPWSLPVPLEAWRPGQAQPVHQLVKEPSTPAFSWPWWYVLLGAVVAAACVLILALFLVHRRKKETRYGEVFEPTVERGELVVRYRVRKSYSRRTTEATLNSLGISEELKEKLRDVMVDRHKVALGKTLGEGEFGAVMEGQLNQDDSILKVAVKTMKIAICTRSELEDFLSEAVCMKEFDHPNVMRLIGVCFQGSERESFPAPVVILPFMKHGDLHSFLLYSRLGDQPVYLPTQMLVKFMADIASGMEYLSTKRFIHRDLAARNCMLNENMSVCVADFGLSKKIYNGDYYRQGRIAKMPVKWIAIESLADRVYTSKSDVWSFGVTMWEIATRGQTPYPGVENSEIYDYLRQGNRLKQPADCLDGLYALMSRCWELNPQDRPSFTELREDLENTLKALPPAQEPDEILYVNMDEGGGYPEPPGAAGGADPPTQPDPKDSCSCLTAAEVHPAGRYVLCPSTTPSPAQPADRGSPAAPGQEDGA
Procedure, shortened: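 Phospho-AXL in lysates was quantified by ELISA, normalised to DMSO (100%) and reference inhibitor (0%) controls. IC50 by 4-parameter logistic fit.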

[5] = Met autophosphorylation ELISA in PC-3 cells
[6] = KDR autophosphorylation ELISA in HUVEC cells
[7] = Mer autophosphorylation ELISA in transient transfected 293A cells
[8] = AXL autophosphorylation ELISA in A-172 cells

Sequence of Met (phospho-Met, HGF-stimulated PC-3 prostate cancer cells) (P08581 25-1390): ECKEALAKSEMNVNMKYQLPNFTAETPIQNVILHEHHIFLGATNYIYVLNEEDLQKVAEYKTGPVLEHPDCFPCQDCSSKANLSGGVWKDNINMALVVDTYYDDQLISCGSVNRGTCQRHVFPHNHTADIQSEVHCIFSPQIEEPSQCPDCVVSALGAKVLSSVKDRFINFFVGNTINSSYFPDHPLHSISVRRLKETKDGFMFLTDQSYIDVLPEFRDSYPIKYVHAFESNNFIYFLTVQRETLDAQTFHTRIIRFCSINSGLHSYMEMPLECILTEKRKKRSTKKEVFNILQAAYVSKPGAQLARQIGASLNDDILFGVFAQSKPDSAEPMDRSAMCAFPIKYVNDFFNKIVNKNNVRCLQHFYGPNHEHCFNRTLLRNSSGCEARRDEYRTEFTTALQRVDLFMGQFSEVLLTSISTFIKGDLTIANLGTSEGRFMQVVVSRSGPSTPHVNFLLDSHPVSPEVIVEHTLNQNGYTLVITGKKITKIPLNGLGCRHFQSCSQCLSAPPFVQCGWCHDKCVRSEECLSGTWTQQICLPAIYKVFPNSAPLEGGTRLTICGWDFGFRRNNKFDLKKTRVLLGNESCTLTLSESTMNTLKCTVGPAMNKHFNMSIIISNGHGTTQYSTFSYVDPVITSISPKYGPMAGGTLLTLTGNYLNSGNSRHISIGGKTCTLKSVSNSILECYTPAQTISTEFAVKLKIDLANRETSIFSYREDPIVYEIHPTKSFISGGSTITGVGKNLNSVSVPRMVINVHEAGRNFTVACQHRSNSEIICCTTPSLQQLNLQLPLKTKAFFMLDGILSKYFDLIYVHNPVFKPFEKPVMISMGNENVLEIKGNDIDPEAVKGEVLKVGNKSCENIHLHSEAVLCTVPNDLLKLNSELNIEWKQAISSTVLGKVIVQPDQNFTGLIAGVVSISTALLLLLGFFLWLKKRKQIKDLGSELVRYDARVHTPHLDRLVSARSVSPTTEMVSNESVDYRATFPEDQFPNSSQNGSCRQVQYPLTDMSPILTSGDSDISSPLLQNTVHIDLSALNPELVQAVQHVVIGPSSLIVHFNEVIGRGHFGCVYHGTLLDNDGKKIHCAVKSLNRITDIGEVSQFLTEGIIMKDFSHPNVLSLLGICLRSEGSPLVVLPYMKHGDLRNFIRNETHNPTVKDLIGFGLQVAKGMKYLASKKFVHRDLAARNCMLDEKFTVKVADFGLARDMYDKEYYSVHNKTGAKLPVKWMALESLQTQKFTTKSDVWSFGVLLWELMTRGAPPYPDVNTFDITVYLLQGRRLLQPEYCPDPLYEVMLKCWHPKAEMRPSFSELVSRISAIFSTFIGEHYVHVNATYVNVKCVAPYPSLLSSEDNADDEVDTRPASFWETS

Row | IC50 [1, 5] [nM] | IC50 [2, 6] [nM] | IC50 [3, 7] [nM] | IC50 [4, 8] [nM] | IC50 ([1]; PC-3 cells) [nM] | IC50 ([2]; HUVEC cells) [nM] | IC50 ([3]; transfected 293A cells) [nM] | IC50 ([4]; A-172 cells) [nM] | SMILES
1 | < 100 | 100 to 300 | < 100 | < 100 | – | – | – | – | COc1cc2nccc(Oc3ccc(NC(=O)c4nn(C(F)F)c(C)c(-c5ccc(F)cc5)c4=O)cc3F)c2nc1OC [Compound 721, 1-(difluoromethyl)-N-[4-[(6,7-dimethoxy-1,5-naphthyridin-4-yl)oxy]-3-fluorophenyl]-5-(4-fluorophenyl)-6-methyl-4-oxopyridazine-3-carboxamide]
2 | < 100 | > 300 | < 100 | < 100 | – | – | – | – | COc1cc2nccc(Oc3ccc(NC(=O)c4c(C)c(C)nn(-c5ccc(F)cc5)c4=O)cc3)c2nc1OC [Compound 732, N-[4-[(6,7-dimethoxy-1,5-naphthyridin-4-yl)oxy]phenyl]-2-(4-fluorophenyl)-5,6-dimethyl-3-oxopyridazine-4-carboxamide]
3 | < 100 | < 100 | < 100 | < 100 | – | – | – | – | COCCc1nc(C)c(-c2ccc(F)cc2)c(O)c1C(=O)Nc1ccc(Oc2ccnc3cc(OC)c(OC)nc23)c(F)c1 [Compound 785, N-[4-[(6,7-dimethoxy-1,5-naphthyridin-4-yl)oxy]-3-fluorophenyl]-5-(4-fluorophenyl)-4-hydroxy-2-(2-methoxyethyl)-6-methylpyridine-3-carboxamide]
4 | < 100 | < 100 | < 100 | < 100 | – | – | – | – | C=C(C)c1cnc2c(Oc3ccc(NC(=O)c4c(C)ncc(-c5ccc(F)cc5C)c4O)cc3F)ccnc2c1 [Compound 474, 5-(4-fluoro-2-methylphenyl)-N-[3-fluoro-4-[(7-prop-1-en-2-yl-1,5-naphthyridin-4-yl)oxy]phenyl]-4-hydroxy-2-methylpyridine-3-carboxamide]
5 | < 100 | < 100 | < 100 | < 100 | – | – | – | – | COc1cnc2c(Oc3ccc(NC(=O)c4c(C)nc(C)c(-c5ccc(F)c(F)c5)c4O)cc3F)ccnc2c1 [Compound 687, 5-(3,4-difluorophenyl)-N-[3-fluoro-4-[(7-methoxy-1,5-naphthyridin-4-yl)oxy]phenyl]-4-hydroxy-2,6-dimethylpyridine-3-carboxamide]
6 | < 100 | < 100 | < 100 | < 100 | – | – | – | – | COc1cnc2c(Oc3ccc(NC(=O)c4cnc(C)c(-c5ccc(F)c(C)c5)c4O)cc3F)ccnc2c1 [Compound 701, N-[3-fluoro-4-[(7-methoxy-1,5-naphthyridin-4-yl)oxy]phenyl]-5-(4-fluoro-3-methylphenyl)-4-hydroxy-6-methylpyridine-3-carboxamide]
7 | < 100 | < 100 | < 100 | < 100 | – | – | – | – | COCc1nc(C)c(-c2ccc(F)cc2C)c(O)c1C(=O)Nc1ccc(Oc2ccnc3cc(C)c(OC)nc23)c(F)c1 [Compound 470, N-[3-fluoro-4-[(6-methoxy-7-methyl-1,5-naphthyridin-4-yl)oxy]phenyl]-5-(4-fluoro-2-methylphenyl)-4-hydroxy-2-(methoxymethyl)-6-methylpyridine-3-carboxamide]
8 | < 100 | > 300 | < 100 | < 100 | – | – | – | – | COCCOc1cc2nccc(Oc3ccc(NC(=O)c4cc(C(C)=O)c(C)n(-c5ccc(F)cc5)c4=O)cc3)c2nc1OC [Compound 757, 5-acetyl-1-(4-fluorophenyl)-N-[4-[[6-methoxy-7-(2-methoxyethoxy)-1,5-naphthyridin-4-yl]oxy]phenyl]-6-methyl-2-oxopyridine-3-carboxamide]
9 | < 100 | < 100 | < 100 | < 100 | – | – | – | – | COc1cnc2c(Oc3cc(F)c(NC(=O)c4c(C)nc(C)c(-c5ccc(F)cc5C)c4O)cc3F)ccnc2c1 [Compound 751, N-[2,5-difluoro-4-[(7-methoxy-1,5-naphthyridin-4-yl)oxy]phenyl]-5-(4-fluoro-2-methylphenyl)-4-hydroxy-2,6-dimethylpyridine-3-carboxamide]
10 | < 100 | < 100 | < 100 | < 100 | – | – | – | – | CCOc1nc2c(Oc3ccc(NC(=O)c4c(C)ncc(-c5ccc(F)cc5)c4O)cc3)ccnc2cc1OC [Compound 671, N-[4-[(6-ethoxy-7-methoxy-1,5-naphthyridin-4-yl)oxy]phenyl]-5-(4-fluorophenyl)-4-hydroxy-2-methylpyridine-3-carboxamide]
11 | < 100 | < 100 | < 100 | < 100 | – | – | – | – | COc1cc2nccc(Oc3ccc(NC(=O)c4c(C)c(C)cn(-c5ccc(F)cc5)c4=O)cc3)c2nc1OC [Compound 680, N-[4-[(6,7-dimethoxy-1,5-naphthyridin-4-yl)oxy]phenyl]-1-(4-fluorophenyl)-4,5-dimethyl-2-oxopyridine-3-carboxamide]
12 | < 100 | > 300 | < 100 | 100 to 300 | – | – | – | – | CNc1c(C(=O)Nc2ccc(Oc3ccnc4cc(OC)c(OC)nc34)c(F)c2)c(=O)c(-c2ccc(F)cc2)c(C)n1C [Compound 649, N-[4-[(6,7-dimethoxy-1,5-naphthyridin-4-yl)oxy]-3-fluorophenyl]-5-(4-fluorophenyl)-1,6-dimethyl-2-(methylamino)-4-oxopyridine-3-carboxamide]
13 | < 100 | 100 to 300 | < 100 | < 100 | – | – | – | – | COc1cnc2c(Oc3ccc(NC(=O)c4c(C)c(C(C)=O)c(C)n(-c5ccc(F)cc5)c4=O)cc3F)ccnc2c1 [Compound 323, 5-Acetyl-N-[3-fluoro-4-[(7-methoxy-1,5-naphthyridin-4-yl)oxy]phenyl]-1-(4-fluorophenyl)-4,6-dimethyl-2-oxopyridine-3-carboxamide]
14 | < 100 | < 100 | < 100 | < 100 | – | – | – | – | COc1cc2nccc(Oc3ccc(NC(=O)c4cn(C)c(C)c(-c5ccc(F)cc5F)c4=O)cc3)c2nc1OC [Compound 396, 5-(2,4-difluorophenyl)-N-[4-[(6,7-dimethoxy-1,5-naphthyridin-4-yl)oxy]phenyl]-1,6-dimethyl-4-oxopyridine-3-carboxamide]
15 | < 100 | > 300 | < 100 | < 100 | – | – | – | – | COc1cc2nccc(Oc3ccc(NC(=O)c4cn(C5(C)COC5)cc(-c5ccc(F)cc5)c4=O)cc3F)c2nc1OC [Compound 54, N-[4-[(6,7-Dimethoxy-1,5-naphthyridin-4-yl)oxy]-3-fluorophenyl]-5-(4-fluorophenyl)-1-(3-methyloxetan-3-yl)-4-oxopyridine-3-carboxamide]
16 | < 100 | > 300 | < 100 | < 100 | – | – | – | – | COc1cnc2c(Oc3ccc(NC(=O)c4cn(CC(F)F)c(C)c(-c5ccc(F)cc5C)c4=O)cc3F)ccnc2c1 [Compound 723, 1-(2,2-difluoroethyl)-N-[3-fluoro-4-[(7-methoxy-1,5-naphthyridin-4-yl)oxy]phenyl]-5-(4-fluoro-2-methylphenyl)-6-methyl-4-oxopyridine-3-carboxamide]
17 | < 100 | < 100 | < 100 | < 100 | – | – | – | – | Cc1ccc(C(=O)Nc2ccc(Oc3ccnc4cnc(Cl)cc34)c(F)c2)c(=O)n1-c1ccc(F)cc1 [Compound 496, N-[4-[(6-chloro-1,7-naphthyridin-4-yl)oxy]-3-fluorophenyl]-1-(4-fluorophenyl)-6-methyl-2-oxopyridine-3-carboxamide]
18 | – | – | – | – | < 100 | < 100 | < 100 | < 100 | COc1cnc2c(Oc3ccc(NC(=O)c4c(C)n(CC(F)F)cc(-c5ccc(F)cc5OC)c4=O)cc3F)ccnc2c1 [Compound 811, 1-(2,2-difluoroethyl)-N-[3-fluoro-4-[(7-methoxy-1,5-naphthyridin-4-yl)oxy]phenyl]-5-(4-fluoro-2-methoxyphenyl)-2-methyl-4-oxopyridine-3-carboxamide]
19 | < 100 | < 100 | < 100 | < 100 | – | – | – | – | COc1cc2nccc(Oc3ccc(NC(=O)c4c(C)c(C)c(C)n(-c5ccc(F)cc5)c4=O)cc3)c2nc1OC [Compound 315, N-[4-[(6,7-Dimethoxy-1,5-naphthyridin-4-yl)oxy]phenyl]-1-(4-fluorophenyl)-4,5,6-trimethyl-2-oxopyridine-3-carboxamide]
20 | < 100 | < 100 | < 100 | < 100 | – | – | – | – | COc1cc2nccc(Oc3ccc(NC(=O)c4c(C)c(F)c(C)n(-c5ccc(F)cc5)c4=O)cc3)c2nc1OC [Compound 325, N-[4-[(6,7-Dimethoxy-1,5-naphthyridin-4-yl)oxy]phenyl]-5-fluoro-1-(4-fluorophenyl)-4,6-dimethyl-2-oxopyridine-3-carboxamide]
